Data on one substance can be found in patent US11760784B2, “Compositions comprising PEDF-derived short peptides and uses thereof” (BRIM Biotechnology, Inc., priority 2016, dated 2023).

The subject of one assay is IL-6 mRNA. Description: Ocular IL-6 mRNA by quantitative real-time PCR in CEC dry eye mice. The format is in vivo, C57BL6 mice. The settings on record: CEC 14 days, then topical PDSP for 5 days. How it is done:
(§1) Dry eye is associated with abnormalities in the pre-corneal tear film and subsequent inflammatory changes in the entire ocular surface including the adnexa, conjunctiva and cornea. (see, Hessen et al., “Dry eye: An Inflammatory Ocular Disease,” J. Ophthalmic Vis. Res., 2014, 9(2): 240-250). Therefore, the effects of PDSPs in corneal inflammatory responses were next examined. Briefly, C57BL6 mice were housed in CEC for 14 days (Day 0) and then treatment with PDSP or vehicle were performed for additional 5 days (Day 5). Then, mRNA levels for inflammatory factors were evaluated by quantitative real-time PCR.
(§2) The total RNA was extracted from cells using TRIzol (Invitrogen) and treated with RNase free DNase I (Qiagen, Santa Clarita, CA) to remove genomic DNA and then purified with an RNA purification kit (Dynabeads; Invitrogen). […] Quantitative real-time PCR was performed in a GeneAmp 7700 sequence detection system (Applied Biosystems, Foster City, CA). […] All determinations were measured in triplicate. The cycle threshold (Ct) values corresponded to the PCR cycle number at which fluorescence emission in real time reaches a threshold above the base-line emission were analyzed using GeneAmp 7700 SDS software. The Ct value of the PCR product of interest and a control mRNA (GAPDH) were then used to calculate relative quantities of mRNA between samples.
A general note: In qPCR the cycle at which signal appears reflects the starting amount.

The test system of another assay is MCP-1 mRNA. Description: Ocular MCP-1 mRNA by quantitative real-time PCR in CEC dry eye mice. Type of assay: in vivo, C57BL6 mice. The conditions noted are these: CEC 14 days, then topical PDSP for 5 days. As for the experimental part:
as §1, §2

With “PDSP: 29mer, residues 93-121 of human PEDF: SLGAEQRTESIIHRALYYDLISSPDIHGT (SEQ ID NO:4) (listed as Homo sapiens)”, in the assay with IL-6 mRNA, the “repression of ocular IL-6 mRNA expression compared to vehicle-treated group” value came to 2.0 fold. In addition, the “repression of ocular MCP-1 mRNA expression compared to vehicle-treated group” value in the assay on MCP-1 mRNA was determined as 1.7 fold.
